Test results: patent US9790228B2, “Heterocyclic kinase inhibitors” (Intellikine LLC, priority 2008, dated 2017)

What was measured:
p110γ = p110γ (Homo sapiens (Human), UniProt P48736); test: PI3K γ inhibition assay (TLC lipid kinase or HTRF); format: biochemical
In short: (§1)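 IC50 from TLC lipid kinase assay (25 mM HEPES pH 7.4, 10 mM MgCl2, 100 μg/ml phosphatidylinositol, 10 or 100 μM γ-32P-ATP, 5 min RT, phosphorimager) at 10–12 two-fold dilutions, or HTRF (10 μM PIP2, 10 μM ATP, 1 h RT) measuring PIP3 by TR-FRET; 2% DMSO final.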

p110α/p85α = p110α/p85α (Homo sapiens (Human), UniProt P42336); test: PI3K α inhibition assay (TLC lipid kinase or HTRF); format: biochemical
Sequence of p110α/p85α (P42336 whole entry): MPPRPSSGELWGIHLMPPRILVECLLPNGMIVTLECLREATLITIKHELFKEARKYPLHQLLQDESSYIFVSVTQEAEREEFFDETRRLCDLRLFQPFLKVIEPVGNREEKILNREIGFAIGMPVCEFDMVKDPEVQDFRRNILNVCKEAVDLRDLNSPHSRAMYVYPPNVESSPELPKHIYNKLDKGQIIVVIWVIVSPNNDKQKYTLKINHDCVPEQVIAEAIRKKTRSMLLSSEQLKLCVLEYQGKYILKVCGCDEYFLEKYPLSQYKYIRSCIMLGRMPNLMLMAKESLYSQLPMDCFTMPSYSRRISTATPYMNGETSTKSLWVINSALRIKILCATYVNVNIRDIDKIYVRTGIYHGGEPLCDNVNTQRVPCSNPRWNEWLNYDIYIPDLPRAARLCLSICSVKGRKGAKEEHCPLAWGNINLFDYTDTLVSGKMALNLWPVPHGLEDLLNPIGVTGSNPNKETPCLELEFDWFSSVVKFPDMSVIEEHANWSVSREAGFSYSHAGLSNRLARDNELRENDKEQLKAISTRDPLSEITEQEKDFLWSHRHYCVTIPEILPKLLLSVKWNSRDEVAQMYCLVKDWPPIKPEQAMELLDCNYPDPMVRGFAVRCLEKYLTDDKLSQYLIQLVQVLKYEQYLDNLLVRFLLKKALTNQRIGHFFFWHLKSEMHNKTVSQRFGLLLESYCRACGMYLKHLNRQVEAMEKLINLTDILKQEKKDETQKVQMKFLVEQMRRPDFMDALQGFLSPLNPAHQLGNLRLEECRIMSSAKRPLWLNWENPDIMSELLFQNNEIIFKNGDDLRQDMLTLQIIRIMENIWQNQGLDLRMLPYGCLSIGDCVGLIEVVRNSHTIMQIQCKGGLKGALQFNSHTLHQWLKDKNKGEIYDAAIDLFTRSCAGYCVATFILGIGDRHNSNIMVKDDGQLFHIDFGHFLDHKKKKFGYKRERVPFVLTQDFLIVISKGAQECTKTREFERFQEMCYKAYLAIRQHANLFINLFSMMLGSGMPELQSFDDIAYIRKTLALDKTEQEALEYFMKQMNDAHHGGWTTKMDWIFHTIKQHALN
Sequence of p110α/p85α (P27986 whole entry partner): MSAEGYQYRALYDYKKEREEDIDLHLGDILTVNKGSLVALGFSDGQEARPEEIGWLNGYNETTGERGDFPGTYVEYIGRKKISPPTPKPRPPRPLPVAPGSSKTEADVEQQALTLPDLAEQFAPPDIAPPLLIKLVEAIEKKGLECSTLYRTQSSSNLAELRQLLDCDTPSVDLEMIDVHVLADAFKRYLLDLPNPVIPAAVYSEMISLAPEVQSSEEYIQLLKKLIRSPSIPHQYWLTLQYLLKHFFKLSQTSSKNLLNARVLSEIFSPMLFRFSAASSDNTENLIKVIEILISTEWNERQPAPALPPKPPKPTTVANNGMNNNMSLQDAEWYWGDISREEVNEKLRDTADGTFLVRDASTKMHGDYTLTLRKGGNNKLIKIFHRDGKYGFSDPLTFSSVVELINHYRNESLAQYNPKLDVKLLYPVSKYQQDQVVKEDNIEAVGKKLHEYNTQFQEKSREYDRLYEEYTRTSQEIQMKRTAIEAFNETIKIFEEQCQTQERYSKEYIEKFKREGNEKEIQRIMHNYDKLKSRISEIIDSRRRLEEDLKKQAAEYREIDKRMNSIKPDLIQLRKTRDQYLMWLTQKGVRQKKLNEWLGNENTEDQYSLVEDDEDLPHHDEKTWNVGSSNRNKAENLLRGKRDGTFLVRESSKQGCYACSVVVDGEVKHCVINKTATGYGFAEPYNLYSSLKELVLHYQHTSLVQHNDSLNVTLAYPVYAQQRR
In short: as §1

p110β/p85α = p110β/p85α (Homo sapiens, UniProt P42338); test: PI3K β inhibition assay (TLC lipid kinase or HTRF); format: biochemical; conditions: read-out: PI3K β IC50
Sequence of p110β/p85α (P42338 whole entry, looked up): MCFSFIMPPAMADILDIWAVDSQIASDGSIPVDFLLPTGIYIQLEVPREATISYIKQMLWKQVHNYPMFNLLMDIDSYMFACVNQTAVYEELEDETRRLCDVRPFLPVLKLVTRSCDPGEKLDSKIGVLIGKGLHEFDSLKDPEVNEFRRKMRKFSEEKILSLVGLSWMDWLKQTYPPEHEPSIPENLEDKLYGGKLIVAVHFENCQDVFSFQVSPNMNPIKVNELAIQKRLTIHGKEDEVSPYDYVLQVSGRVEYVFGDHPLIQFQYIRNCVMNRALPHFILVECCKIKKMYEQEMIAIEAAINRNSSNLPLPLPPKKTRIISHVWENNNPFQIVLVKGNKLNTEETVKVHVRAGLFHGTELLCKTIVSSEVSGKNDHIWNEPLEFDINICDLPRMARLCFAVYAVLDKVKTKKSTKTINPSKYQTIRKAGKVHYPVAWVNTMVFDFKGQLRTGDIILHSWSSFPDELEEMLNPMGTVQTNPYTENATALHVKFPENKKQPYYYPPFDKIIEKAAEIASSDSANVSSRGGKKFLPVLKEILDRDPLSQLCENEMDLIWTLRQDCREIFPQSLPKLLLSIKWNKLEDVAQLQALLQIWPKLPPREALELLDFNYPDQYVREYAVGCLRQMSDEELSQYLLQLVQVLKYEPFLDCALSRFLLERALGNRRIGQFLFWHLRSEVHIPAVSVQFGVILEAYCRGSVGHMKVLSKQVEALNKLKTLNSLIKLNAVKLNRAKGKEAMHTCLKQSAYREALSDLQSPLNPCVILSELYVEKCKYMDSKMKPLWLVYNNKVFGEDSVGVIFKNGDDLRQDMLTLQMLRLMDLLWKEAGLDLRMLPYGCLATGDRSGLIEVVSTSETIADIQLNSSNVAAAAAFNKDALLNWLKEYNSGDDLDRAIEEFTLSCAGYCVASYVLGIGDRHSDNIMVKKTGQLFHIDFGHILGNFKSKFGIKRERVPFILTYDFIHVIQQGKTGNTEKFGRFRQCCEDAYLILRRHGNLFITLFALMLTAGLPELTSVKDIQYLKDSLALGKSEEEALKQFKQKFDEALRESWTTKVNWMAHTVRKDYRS
In short: as §1

Balb/c splenic B cells = test: B cell activation and proliferation assay (Alamar Blue); format: cell-based, mouse; conditions: Mus musculus, B-cell
In short: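 Purified Balb/c splenic B cells, 50,000/well, pretreated with compound 30 min (0.2% DMSO), then stimulated with 10 ug/ml LPS or 5 ug/ml anti-IgM F(ab′)2 plus 2 ng/ml IL4 (cocktail concentrations) for 72 h at 37 °C. Alamar Blue 5 h, fluorescence 560/590 nm; IC50/EC50 calculated.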

p110δ/p85α = p110δ/p85α (Homo sapiens (Human), UniProt O00329); test: PI3K δ inhibition assay (TLC lipid kinase or HTRF); format: biochemical
Sequence of p110δ/p85α (O00329 whole entry): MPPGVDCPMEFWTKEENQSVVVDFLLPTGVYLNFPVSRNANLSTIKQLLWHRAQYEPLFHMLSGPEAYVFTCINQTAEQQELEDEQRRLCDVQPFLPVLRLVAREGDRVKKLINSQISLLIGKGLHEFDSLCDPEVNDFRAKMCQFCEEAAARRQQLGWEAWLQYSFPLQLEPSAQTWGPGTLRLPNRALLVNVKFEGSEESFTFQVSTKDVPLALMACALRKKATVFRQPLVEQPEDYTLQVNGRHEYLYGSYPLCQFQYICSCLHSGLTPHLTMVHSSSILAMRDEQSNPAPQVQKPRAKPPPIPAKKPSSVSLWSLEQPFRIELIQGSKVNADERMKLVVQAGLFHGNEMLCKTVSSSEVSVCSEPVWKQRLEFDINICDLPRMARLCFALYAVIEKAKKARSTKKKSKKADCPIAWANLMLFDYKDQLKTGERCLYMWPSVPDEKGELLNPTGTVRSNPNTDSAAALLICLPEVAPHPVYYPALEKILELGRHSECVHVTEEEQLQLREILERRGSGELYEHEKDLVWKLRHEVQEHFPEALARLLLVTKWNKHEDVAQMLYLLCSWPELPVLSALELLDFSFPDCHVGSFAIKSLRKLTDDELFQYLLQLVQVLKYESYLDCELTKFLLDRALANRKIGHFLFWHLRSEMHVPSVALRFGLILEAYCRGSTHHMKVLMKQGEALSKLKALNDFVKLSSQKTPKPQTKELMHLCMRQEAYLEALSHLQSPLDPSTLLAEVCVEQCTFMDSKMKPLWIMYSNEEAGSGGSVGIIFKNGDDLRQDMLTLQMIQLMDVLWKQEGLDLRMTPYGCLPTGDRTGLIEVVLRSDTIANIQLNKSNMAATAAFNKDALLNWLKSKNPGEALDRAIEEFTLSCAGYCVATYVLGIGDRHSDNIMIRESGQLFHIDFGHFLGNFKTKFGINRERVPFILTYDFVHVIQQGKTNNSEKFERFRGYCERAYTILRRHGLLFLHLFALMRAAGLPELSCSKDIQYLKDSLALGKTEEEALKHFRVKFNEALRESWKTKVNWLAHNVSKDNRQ
Sequence of p110δ/p85α (P27986 whole entry partner): as the sequence (P27986 whole entry partner) above
In short: as §1

Sequence of p110γ (P48736 whole entry): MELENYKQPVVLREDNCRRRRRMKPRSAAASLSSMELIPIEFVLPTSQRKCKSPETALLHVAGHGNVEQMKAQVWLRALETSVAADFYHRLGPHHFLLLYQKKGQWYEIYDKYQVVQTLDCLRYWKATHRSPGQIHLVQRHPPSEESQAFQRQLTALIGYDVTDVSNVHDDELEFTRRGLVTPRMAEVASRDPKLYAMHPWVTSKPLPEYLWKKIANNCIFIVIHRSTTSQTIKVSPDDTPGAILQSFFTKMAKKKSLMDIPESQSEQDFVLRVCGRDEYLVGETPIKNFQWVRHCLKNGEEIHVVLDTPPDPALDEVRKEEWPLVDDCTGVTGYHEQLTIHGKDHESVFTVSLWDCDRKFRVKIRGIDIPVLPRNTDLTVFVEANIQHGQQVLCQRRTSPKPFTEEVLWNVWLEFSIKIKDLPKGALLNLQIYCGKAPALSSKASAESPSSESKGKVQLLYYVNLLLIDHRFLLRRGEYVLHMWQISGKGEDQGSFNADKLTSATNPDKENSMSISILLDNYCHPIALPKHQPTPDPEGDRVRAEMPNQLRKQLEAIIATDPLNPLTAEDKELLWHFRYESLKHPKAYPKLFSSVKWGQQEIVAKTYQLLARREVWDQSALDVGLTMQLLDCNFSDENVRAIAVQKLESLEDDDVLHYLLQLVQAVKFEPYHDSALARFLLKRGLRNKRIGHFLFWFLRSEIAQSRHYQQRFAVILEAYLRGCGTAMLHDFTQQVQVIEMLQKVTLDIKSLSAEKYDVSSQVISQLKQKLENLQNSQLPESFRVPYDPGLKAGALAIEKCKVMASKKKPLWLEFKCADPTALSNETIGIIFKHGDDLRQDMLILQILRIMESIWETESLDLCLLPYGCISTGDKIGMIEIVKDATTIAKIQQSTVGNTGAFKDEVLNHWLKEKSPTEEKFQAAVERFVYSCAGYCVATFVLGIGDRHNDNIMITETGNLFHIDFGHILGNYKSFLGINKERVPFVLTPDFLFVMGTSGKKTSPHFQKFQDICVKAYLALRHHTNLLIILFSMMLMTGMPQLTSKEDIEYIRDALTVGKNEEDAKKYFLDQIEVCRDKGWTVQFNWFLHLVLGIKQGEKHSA

Row | SMILES | IC50 (p110γ) [nM] | IC50 (p110α/p85α) [nM] | IC50 (p110β/p85α) [nM] | EC50 (Balb/c splenic B cells) [nM] | IC50 (p110δ/p85α) [nM]
1 | Cc1ccccc1-c1nc2ccccc2cc1Cn1nc(-c2ccc3oc(N)nc3c2)c2c(N)ncnc21 [Compound 133] | < 100 | > 1000 | > 1000 | 100 to 1000 | < 100
2 | Cc1ccccc1-c1nc2ccccc2cc1Cn1nc(-c2ccc3ncnc(N)c3c2)c2c(N)ncnc21 [Compound 134] | < 100 | > 1000 | > 1000 | 100 to 1000 | < 100
3 | Nc1ncc2cc(-c3nn(Cc4cc5ccccc5nc4-c4ccccc4F)c4ncnc(N)c34)ccc2n1 [Compound 135] | < 100 | 100 to 1000 | > 1000 | < 100 | < 100
4 | Nc1ccc2cc(-c3nn(Cc4cc5ccccc5nc4-c4ccccc4F)c4ncnc(N)c34)ccc2n1 [Compound 136] | < 100 | > 1000 | > 1000 | 100 to 1000 | < 100
5 | Nc1nc2cc(-c3nn(Cc4cc5ccccc5nc4-c4ccccc4F)c4ncnc(N)c34)ccc2o1 [Compound 137] | < 100 | > 1000 | > 1000 | 100 to 1000 | < 100
6 | Nc1ncnc2ccc(-c3nn(Cc4cc5ccccc5nc4-c4ccccc4F)c4ncnc(N)c34)cc12 [Compound 138] | < 100 | > 1000 | > 1000 | 100 to 1000 | < 100
7 | Nc1ncc2cc(-c3nn(Cc4cc5ccccc5nc4N4CCOCC4)c4ncnc(N)c34)ccc2n1 [Compound 139] | < 100 | < 100 | < 100 | < 100 | < 100
8 | Nc1ccc2cc(-c3nn(Cc4cc5ccccc5nc4N4CCOCC4)c4ncnc(N)c34)ccc2n1 [Compound 140] | < 100 | < 100 | 100 to 1000 | < 100 | < 100
9 | Nc1nc2cc(-c3nn(Cc4cc5ccccc5nc4N4CCOCC4)c4ncnc(N)c34)ccc2o1 [Compound 141] | < 100 | 100 to 1000 | > 1000 | < 100 | < 100
10 | Nc1ncnc2ccc(-c3nn(Cc4cc5ccccc5nc4N4CCOCC4)c4ncnc(N)c34)cc12 [Compound 142] | < 100 | 100 to 1000 | > 1000 | < 100 | < 100
11 | Nc1ncc2cc(-c3nn(Cc4cc5ccccc5nc4-c4ccccc4)c4ncnc(N)c34)ccc2n1 [Compound 143] | < 100 | 100 to 1000 | > 1000 | < 100 | < 100
12 | Nc1ccc2cc(-c3nn(Cc4cc5ccccc5nc4-c4ccccc4)c4ncnc(N)c34)ccc2n1 [Compound 144] | < 100 | 100 to 1000 | > 1000 | < 100 | < 100
13 | Nc1nc2cc(-c3nn(Cc4cc5ccccc5nc4-c4ccccc4)c4ncnc(N)c34)ccc2o1 [Compound 145] | < 100 | > 1000 | > 1000 | < 100 | < 100
14 | Nc1ncnc2ccc(-c3nn(Cc4cc5ccccc5nc4-c4ccccc4)c4ncnc(N)c34)cc12 [Compound 146] | < 100 | > 1000 | > 1000 | 100 to 1000 | < 100
15 | Nc1nc2cc(-c3nn(Cc4cc5ccccc5nc4-c4ccccc4F)c4ncnc(N)c34)ccc2[nH]1 [Compound 152] | < 100 | 100 to 1000 | > 1000 | 100 to 1000 | < 100
16 | Nc1nc2cc(-c3nn(Cc4cc5ccccc5nc4N4CCCC4)c4ncnc(N)c34)ccc2[nH]1 [Compound 153] | < 100 | < 100 | 100 to 1000 | 100 to 1000 | < 100
17 | CC(C)Oc1nc2ccccc2cc1Cn1nc(-c2cc(O)cc(F)c2)c2c(N)ncnc21 [Compound 156] | 100 to 1000 | > 1000 | > 1000 | 100 to 1000 | < 100
18 | CC(=O)Nc1nc2ccc(-c3nn(Cc4cc5ccccc5nc4OC(C)C)c4ncnc(N)c34)cc2s1 [Compound 157] | > 1000 | > 1000 | > 1000 | > 1000 | 100 to 1000
19 | Nc1ncc(-c2nn(Cc3cc4ccccc4nc3-c3ccccc3F)c3nccc(N)c23)cn1 [Compound 158] | > 1000 | > 1000 | > 1000 | > 1000 | > 1000
20 | CC(C)Oc1nc2ccccc2cc1Cn1nc(-c2ccc3nc(N)sc3c2)c2c(N)ncnc21 [Compound 159] | < 100 | 100 to 1000 | > 1000 | > 1000 | < 100
21 | Nc1ncnc2c1c(-c1cc(O)cc(F)c1)nn2Cc1cc2ccccc2nc1CCN1CCCC1 [Compound 165] | > 1000 | > 1000 | 100 to 1000 | < 100 | < 100
22 | CC(=O)Nc1nc2ccc(-c3nn(Cc4cc5ccccc5nc4CCN4CCCC4)c4ncnc(N)c34)cc2s1 [Compound 166] | 100 to 1000 | 100 to 1000 | > 1000 | < 100 | < 100
23 | Nc1nc2ccc(-c3nn(Cc4cc5ccccc5nc4CCN4CCCC4)c4ncnc(N)c34)cc2s1 [Compound 167] | < 100 | < 100 | 100 to 1000 | < 100 | < 100
24 | CN1CCN(CCc2nc3ccccc3cc2Cn2nc(-c3cc(O)cc(F)c3)c3c(N)ncnc32)CC1 [Compound 168] | > 1000 | > 1000 | 100 to 1000 | < 100 | < 100
25 | CC(=O)Nc1nc2ccc(-c3nn(Cc4cc5ccccc5nc4CCN4CCN(C)CC4)c4ncnc(N)c34)cc2s1 [Compound 169] | 100 to 1000 | 100 to 1000 | 100 to 1000 | < 100 | < 100
26 | CC(=O)Nc1nc2ccc(-c3nn(Cc4cc5ccccc5nc4-n4cnc(C)c4)c4ncnc(N)c34)cc2s1 [Compound 171] | < 100 | 100 to 1000 | > 1000 | < 100 | < 100
27 | Nc1ncnc2c1c(-c1cnn(CCO)c1)nn2Cc1cc2ccccc2nc1-c1ccccc1 [Compound 179] | > 1000 | > 1000 | > 1000 | 100 to 1000 | 100 to 1000
28 | Nc1ncnc2c1c(-c1cn[nH]c1)nn2Cc1cc2ccccc2nc1-c1ccccc1 [Compound 180] | 100 to 1000 | > 1000 | > 1000 | 100 to 1000 | < 100
29 | Nc1nc2ccc(-c3nn(Cc4cc5ccccc5nc4-c4ccccc4C(F)(F)F)c4ncnc(N)c34)cc2[nH]1 [Compound 181] | < 100 | > 1000 | > 1000 | 100 to 1000 | < 100
30 | CC(C)N(C)c1nc2ccccc2cc1Cn1nc(-c2ccc3nc(N)[nH]c3c2)c2c(N)ncnc21 [Compound 184] | < 100 | > 1000 | > 1000 | 100 to 1000 | < 100
